# Results: patent publication US9242981B2, “Fused pyrazole derivatives as novel ERK inhibitors” (Merck Sharp & Dohme Corp., priority 2010, dated 2016)
# Target: Mouse ERK2 protein (Mus musculus (Mouse), UniProt P63085)
# Test: Coupled MEK1/ERK2 IMAP assay or Active ERK2 IMAP assay
# Assay type: biochemical
# Conditions: Table 1, class symbols, 30 μM ATP
# Sequence of Mouse ERK2 protein (P63085 whole entry): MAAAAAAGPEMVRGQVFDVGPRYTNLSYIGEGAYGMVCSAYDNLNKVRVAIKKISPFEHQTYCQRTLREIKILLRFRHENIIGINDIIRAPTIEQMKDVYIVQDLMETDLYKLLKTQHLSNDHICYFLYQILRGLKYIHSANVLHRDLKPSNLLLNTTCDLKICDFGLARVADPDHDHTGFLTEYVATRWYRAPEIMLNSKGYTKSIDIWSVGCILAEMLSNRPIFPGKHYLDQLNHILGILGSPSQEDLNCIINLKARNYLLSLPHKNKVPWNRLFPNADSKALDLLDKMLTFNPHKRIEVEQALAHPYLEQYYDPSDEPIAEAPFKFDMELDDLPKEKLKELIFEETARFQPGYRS
row,IC50,SMILES
1,21 to 100 nM,"Cc1cc(-c2n[nH]c3c2CN(C(=O)N[C@@H]2CCN(Cc4ccccc4Cl)C2)CC3)ccn1 [Compound 118, N-[1-[(2-chlorophenyl)-methyl]-3(R)-pyrrolidinyl]-1,4,6,7-tetrahydro-3-(2-methyl-4-pyridinyl)-5H-pyrazolo[4,3-c]pyridine-5-carboxamide]"
2,< 20 nM,"Cc1cc(-c2n[nH]c3c2CN(C(=O)NC2CC(C)CN(Cc4c(F)cccc4Cl)C2)CC3)ccn1 (stereo not drawn) [Compound 91, N-[1-[(2-chloro-6-fluorophenyl)methyl]-5-methyl-3-piperidinyl)-1,4,6,7-tetrahydro-3-(2-methyl-4-pyridinyl)-5H-pyrazolo[4,3-c]pyridine-5-carboxamide]"
3,101 to 1000 nM,"CCC1(NC(=O)N2CCc3[nH]nc(-c4ccnc(C)c4)c3C2)CCCN(Cc2c(F)cccc2F)C1 (stereo not drawn) [Compound 92, N-[1-[(2,6-difluorophenyl)-methyl]-3-ethyl-3-piperidinyl]-1,4,6,7-tetrahydro-3-(2-methyl-4-pyridinyl)-5H-pyrazolo[4,3-c]pyridine-5-carboxamide]"
4,< 20 nM,"Cc1cc(-c2n[nH]c3c2CN(C(=O)N[C@@H]2CCN(Cc4csc5ccccc45)C2)CC3)ccn1 [Compound 120, N-[1-(benzo[b]thien-3-ylmethyl)-3(R)-pyrrolidinyl]-1,4,6,7-tetrahydro-3-(2-methyl-4-pyridinyl)-5H-pyrazolo[4,3-c]pyridine-5-carboxamide]"
5,101 to 1000 nM,"Cc1cc(-c2n[nH]c3c2CN(C(=O)NC2CC(C(=O)O)CN(Cc4c(F)cccc4F)C2)CC3)ccn1 (stereo not drawn) [Compound 83, 1-[(2,6-difluorophenyl)-methyl]-5-[[[1,4,6,7-tetrahydro-3-(2-methyl-4-pyridinyl)-5H-pyrazolo[4,3-c]pyridin-5-yl]carbonyl]amino]-3-piperidinecarboxylic acid]"
6,101 to 1000 nM,"O=C(N[C@@H]1CCN(Cc2csc3ccccc23)C1)N1CCc2[nH]nc(-c3ccc(-c4ccccc4)nc3)c2C1 [Compound 129, N-[1-(benzo[b]thien-3-ylmethyl)-3(R)-pyrrolidinyl]-1,4,6,7-tetrahydro-3-(6-phenyl-3-pyridinyl)-5H-pyrazolo[4,3-c]pyridine-5-carboxamide]"
7,21 to 100 nM,"Cc1cc(-c2n[nH]c3c2CN(C(=O)N[C@@H]2CCN(Cc4c(C)cccc4C)C2)CC3)ccn1 [Compound 119, N-[1-[(2,6-dimethylphenyl)-methyl]-3(R)-pyrrolidinyl]-1,4,6,7-tetrahydro-3-(2-methyl-4-pyridinyl)-5H-pyrazolo[4,3-c]pyridine-5-carboxamide]"
8,101 to 1000 nM,"O=C(N[C@@H]1CCCN(Cc2csc3ccccc23)C1)N1CCc2[nH]nc(-c3ccc(-c4ccccc4)nc3)c2C1 [Compound 136, N-[1-(benzo[b]thien-3-ylmethyl)-3(R)-piperidinyl]-1,4,6,7-tetrahydro-3-(6-phenyl-3-pyridinyl)-5H-pyrazolo[4,3-c]pyridine-5-carboxamide]"
9,< 20 nM,"Cc1nc2ccc(-c3n[nH]c4c3CN(C(=O)N[C@@H]3CCCN(Cc5coc6ccccc56)C3)CC4)cc2s1 [Compound 176, N-[1-(3-benzofuranylmethyl)-3(R)-piperidinyl]-1,4,6,7-tetrahydro-3-(2-methyl-6-benzothiazolyl)-5H-pyrazolo[4,3-c]pyridine-5-carboxamide]"
10,1000 to 100000 nM,"COc1ccccc1NC(=O)C1(C)CCc2[nH]nc(-c3ccncc3)c2C1 (stereo not drawn) [Compound 15, 4,5,6,7-tetrahydro-N-(2-methoxyphenyl)-5-methyl-3-(4-pyridinyl)-1H-indazole-5-carboxamide]"
11,101 to 1000 nM,"O=C(NC1CC[C@H]2CC[C@@H]1N2Cc1c(F)cccc1F)N1CCc2[nH]nc(-c3ccc4nccn4c3)c2C1 (stereo in doubt) [Compound 182, N-[8-[(2,6-difluorophenyl)methyl]-8-azabicyclo[3.2.1]oct-2-yl]-1,4,6,7-tetrahydro-3-imidazo[1,2-a]pyridin-6-yl-5H-pyrazolo[4,3-c]pyridine-5-carboxamide]"
12,< 20 nM,"CN1C[C@@H](NC(=O)N2CCc3[nH]nc(-c4ccncc4)c3C2)[C@H](c2ccccc2C(F)(F)F)C1 (racemic) [Compound 149, 1,4,6,7-tetrahydro-N-[trans-1-methyl-4-[2-(trifluoromethyl)phenyl]-3-pyrrolidinyl]-3-(4-pyridinyl)-5H-pyrazolo[4,3-c]pyridine-5-carboxamide]"
13,21 to 100 nM,"Cc1nc2cc(-c3n[nH]c4c3CN(C(=O)N[C@@H]3CCCN(Cc5cn(C)c6ccccc56)C3)CC4)ccc2o1 [Compound 148, 1,4,6,7-tetrahydro-3-(2-methyl-5-benzoxazolyl)-N-[1-[(1-methyl-1H-indol-3-yl)methyl]-3(R)-piperidinyl]-5H-pyrazolo[4,3-c]pyridine-5-carboxamide]"
14,101 to 1000 nM,"Cc1cccc(C)c1CN1CC[C@@H](NC(=O)N2CCc3[nH]nc(-c4ccc(-c5ccccc5)nc4)c3C2)C1 [Compound 139, N-[1-[(2,6-dimethylphenyl)-methyl]-3(R)-pyrrolidinyl]-1,4,6,7-tetrahydro-3-(6-phenyl-3-pyridinyl)-5H-pyrazolo[4,3-c]pyridine-5-carboxamide]"
15,1000 to 100000 nM,"Cn1cnc(CC(=O)N2CCc3[nH]nc(-c4ccncc4)c3C2)c1 [Compound 6, 4,5,6,7-tetrahydro-5-[(1-methyl-1H-imidazol-4-yl)acetyl]-3-(4-pyridinyl)-1H-pyrazolo[4,3-c]pyridine]"
16,< 20 nM,"Cc1cccc(C)c1CN1CCC[C@@H](NC(=O)N2CCc3[nH]nc(-c4ccc5nn(C)cc5c4)c3C2)C1 [Compound 126, N-[1-[(2,6-dimethylphenyl)-methyl]-3(R)-piperidinyl]-1,4,6,7-tetrahydro-3-(2-methyl-2H-indazol-5-yl)-5H-pyrazolo[4,3-c]pyridine-5-carboxamide]"
17,1000 to 100000 nM,"CCn1cc(Cl)c(NC(=O)N2CCc3[nH]nc(-c4ccncc4)c3C2)n1 [Compound 42, N-(4-chloro-1-ethyl-1H-pyrazol-3-yl)-1,4,6,7-tetrahydro-3-(4-pyridinyl)-5H-pyrazolo[4,3-c]pyridine-5-carboxamide]"
18,21 to 100 nM,"Cc1cc(-c2n[nH]c3c2CN(C(=O)N[C@@H]2CCN(Cc4c(F)cccc4Cl)C2)CC3)ccn1 [Compound 117, N-[1-[(2-chloro-6-fluorophenyl)methyl]-3(R)-pyrrolidinyl]-1,4,6,7-tetrahydro-3-(2-methyl-4-pyridinyl)-5H-pyrazolo[4,3-c]pyridine-5-carboxamide]"
19,101 to 1000 nM,"O=C(Cc1c(F)cccc1Cl)N1CCc2[nH]nc(-c3ccncc3)c2C1 [Compound 27, 5-[(2-chloro-6-fluorophenyl)acetyl]-4,5,6,7-tetrahydro-3-(4-pyridinyl)-1H-pyrazolo[4,3-c]pyridine]"
20,1000 to 100000 nM,"CN(C)CCOc1ccccc1NC(=O)C1(C)CCc2[nH]nc(-c3ccncc3)c2C1 (stereo not drawn) [Compound 19, N-[2-[2-(dimethylamino)-ethoxy]phenyl]-4,5,6,7-tetrahydro-5-methyl-3-(4-pyridinyl)-1H-indazole-5-carboxamide]"
21,101 to 1000 nM,Cc1cc(-c2n[nH]c3c2CN(C(=O)N[C@@H]2CCCN(Cc4ccnc5ccccc45)C2)CC3)ccn1 [Compound 98]
22,< 20 nM,"O=C(N[C@@H]1CCCN(Cc2c(F)cccc2Cl)C1)N1CCc2[nH]nc(-c3ccncc3)c2C1 [Compound 66, N-[1-[(2-chloro-6-fluorophenyl)methyl]-3(R)-piperidinyl]-1,4,6,7-tetrahydro-3-(4-pyridinyl)-5H-pyrazolo[4,3-c]pyridine-5-carboxamide]"
23,101 to 1000 nM,"Cc1cc(-c2n[nH]c3c2CN(C(=O)NC2CCC(c4ccccc4)N(Cc4c(F)cccc4F)C2)CC3)ccn1 (stereo not drawn) [Compound 106, N-[1-[(2,6-difluorophenyl)-methyl]-6-phenyl-3-piperidinyl]-1,4,6,7-tetrahydro-3-(2-methyl-4-pyridinyl)-5H-pyrazolo[4,3-c]pyridine-5-carboxamide]"
24,21 to 100 nM,"Cc1cc(-c2n[nH]c3c2CN(C(=O)NC2CC(C)CN(Cc4ccccc4Cl)C2)CC3)ccn1 (stereo not drawn) [Compound 103, N-[1-[(2-chlorophenyl)methyl]-5-methyl-3-piperidinyl]-1,4,6,7-tetrahydro-3-(2-methyl-4-pyridinyl)-5H-pyrazolo[4,3-c]pyridine-5-carboxamide]"
25,21 to 100 nM,"Cc1cc(-c2n[nH]c3c2CN(C(=O)N[C@@H]2CCCN(Cc4c(F)cccc4F)C2)CC3)ccn1 [Compound 81, N-[1-[(2,6-difluorophenyl)-methyl]-3(R)-piperidinyl]-1,4,6,7-tetrahydro-3-(2-methyl-4-pyridinyl)-5H-pyrazolo[4,3-c]pyridine-5-carboxamide]"
26,101 to 1000 nM,"Cc1cc(-c2n[nH]c3c2CN(C(=O)NC2CN(Cc4c(F)cccc4F)CCC2F)CC3)ccn1 (mixture of isomers) [Compound 158, N-[cis/trans-1-[(2,6-difluorophenyl)methyl]-4-fluoro-3-piperidinyl]-1,4,6,7-tetrahydro-3-(2-methyl-4-pyridinyl)-5H-pyrazolo[4,3-c]pyridine-5-carboxamide]"
27,101 to 1000 nM,"O=C(CC1CCCNC1)N1CCc2[nH]nc(-c3ccncc3)c2C1 (stereo not drawn) [Compound 51, 4,5,6,7-tetrahydro-5-(3-piperidinylacetyl)-3-(4-pyridinyl)-1H-pyrazolo[4,3-c]pyridine]"
28,< 20 nM,"Cc1nc2ccc(-c3n[nH]c4c3CN(C(=O)N[C@@H]3CCCN(Cc5csc6ccccc56)C3)CC4)cc2s1 [Compound 174, N-[1-(benzo[b]thien-3-ylmethyl)-3(R)-piperidinyl]-1,4,6,7-tetrahydro-3-(2-methyl-6-benzothiazolyl)-5H-pyrazolo[4,3-c]pyridine-5-carboxamide]"
29,101 to 1000 nM,"O=C(Cc1ccccc1Oc1ccccc1)N1CCc2[nH]nc(-c3ccncc3)c2C1 [Compound 29, 4,5,6,7-tetrahydro-5-[(2-phenoxyphenyl)acetyl]-3-(4-pyridinyl)-1H-pyrazol[4,3-c]pyridine]"
30,< 20 nM,"CN1C[C@@H](NC(=O)N2CCc3[nH]nc(-c4ccc(F)cc4)c3C2)[C@H](c2ccccc2C(F)(F)F)C1 (racemic) [Compound 151, 3-(4-fluorophenyl)-1,4,6,7-tetrahydro-N-[trans-1-methyl-4-[2-(trifluoromethyl)phenyl]-3-pyrrolidinyl]-5H-pyrazolo[4,3-c]pyridine-5-carboxamide]"
